Data taken from US20260364068A1, “ANTIVIRAL USE OF HETEROARYL DERIVATIVE COMPOUND” (UIF (University Industry Foundation), Yonsei University, priority 2022, published 2026).
Where two headings read alike, the source gives them in different places.

Tests used:
Format in all cases: cell-based
[1] = tested on: Severe Acute Respiratory Syndrome Coronavirus Type 2; assay: microbe, parasite or virus in culture; conditions: Calu-3, 10 uM, virus strain NCCP-43388, 48 hours, read-out: Virus replication inhibition efficacy
[2] = tested on: Severe Acute Respiratory Syndrome Coronavirus Type 2; assay: microbe, parasite or virus in culture; conditions: Vero, 10 uM, virus strain NCCP-43388, 48 hours, read-out: Virus replication inhibition efficacy
human ANO6 (variant 5) = biological target: T1, human ANO6 (variant 5) (Homo sapiens, UniProt Q4KMQ2); assay: Lact C2 assay (phosphatidylserine externalization scramblase function); conditions: FRT cells expressing human ANO6, ionomycin 10 μM, read-out: % Inhibition (phosphatidylserine externalization inhibitory activity); for inhibition at 0.05 µM: 50 nM
T1 construct: expressed in transfected cells; host or cells: Fisher rat thyroid (FRT) cells
T1 sequence (Q4KMQ2 1-931 isoform Q4KMQ2-2): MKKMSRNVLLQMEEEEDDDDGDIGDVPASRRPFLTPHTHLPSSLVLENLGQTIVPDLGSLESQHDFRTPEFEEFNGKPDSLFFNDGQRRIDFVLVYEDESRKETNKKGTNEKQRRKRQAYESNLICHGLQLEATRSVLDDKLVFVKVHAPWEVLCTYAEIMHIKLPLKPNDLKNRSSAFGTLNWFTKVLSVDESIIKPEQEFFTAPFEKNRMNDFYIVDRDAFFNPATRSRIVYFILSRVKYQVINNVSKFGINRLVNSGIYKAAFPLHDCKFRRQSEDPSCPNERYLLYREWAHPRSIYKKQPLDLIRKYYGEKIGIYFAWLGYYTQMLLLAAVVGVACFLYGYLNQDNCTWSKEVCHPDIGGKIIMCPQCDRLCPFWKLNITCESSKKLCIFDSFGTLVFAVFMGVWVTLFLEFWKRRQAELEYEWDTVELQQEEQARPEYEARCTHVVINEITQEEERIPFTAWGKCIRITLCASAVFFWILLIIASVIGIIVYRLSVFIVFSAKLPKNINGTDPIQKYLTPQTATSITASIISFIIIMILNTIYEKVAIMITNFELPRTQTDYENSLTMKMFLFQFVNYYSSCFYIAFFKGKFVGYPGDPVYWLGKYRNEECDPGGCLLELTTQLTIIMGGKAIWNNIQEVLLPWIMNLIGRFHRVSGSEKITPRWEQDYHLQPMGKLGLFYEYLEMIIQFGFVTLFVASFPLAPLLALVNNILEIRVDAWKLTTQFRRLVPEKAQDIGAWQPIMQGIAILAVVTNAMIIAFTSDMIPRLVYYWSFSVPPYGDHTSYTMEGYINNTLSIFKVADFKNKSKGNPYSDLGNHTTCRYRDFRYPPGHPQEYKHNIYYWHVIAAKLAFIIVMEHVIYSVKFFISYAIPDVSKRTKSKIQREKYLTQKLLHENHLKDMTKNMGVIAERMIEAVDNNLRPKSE
Protocol: Experimental Example 2: Lact C2 Assay (Measuring Phosphatidylserine Externalization Scramblase Function)
Ionomycin (Alomonelab, cat. #I-700), DAPI (Sigma-Aldrich, cat. #D8417), paraformaldehyde (Biosesang, cat. #P2031), Lionheart FX automated fluorescence microscope (BioTek), Gen5™ software program (BioTek), and Image J analysis software program.
Fisher rat thyroid (FRT) cells expressing human ANO6 (variant 5; GenBank accession no. NP_001191732.1) were cultured at 37 °C under 5% CO2 conditions in DMEM/Ham's F-12 (1:1) medium supplemented with 10% Fetal Bovine Serum, 2 mM […], 100 units/mL penicillin, and 100 μg/mL streptomycin.
Fischer Rat Thyroid (FRT) cells (2×10^4 cells/well) expressing human ANO6 (variant 5) were cultured in a 96-well microplate for 24 hours. After the incubation, the cells were treated with compounds dissolved in DMSO to 1% v/v in each well at each concentration (50 nM, 100 nM, and 1 μM) and reacted for 10 minutes. Thereafter, each well was treated with ionomycin to a final concentration of 10 μM, allowed to react for 10 minutes, and then washed with 200 μL PBS. After washing, each well was treated with 50 μL of Lactadherin-C2 (Lact-C2)-GFP mixed in DMEM medium to a final concentration of 500 nM to stain phosphatidylserine, and cultured at 37 °C for 10 minutes. After completion of the reaction, the cells were washed with 200 μL PBS, and fixed with 4% paraformaldehyde for 5 minutes at room temperature. For morphological analysis, DAPI solution was added, and the cells were incubated for 15 minutes, followed by washing with PBS. The fluorescence intensity of Lact-C2-GFP bound to phosphatidylserine on the cell surface was measured using an automated fluorescence microscope. For quantitative analysis of the fluorescence intensity of Lact-C2-GFP, BioTek Gen5™ software and Image J analysis software programs were used.
Phosphatidylserine externalization inhibitory activity (%) by the compound was calculated through the following analysis method. Specifically, the background fluorescence value was subtracted from the measured Lact-C2-GFP fluorescence value, and the fluorescence value of the ionomycin non-treatment group and the ionomycin-treatment group in the same row where each test group was located in a 96-well microplate were calculated. In order to calculate the inhibitory activity (%) by the compound, the relative inhibitory activity was calculated by setting the compound and ionomycin non-treatment group to 100% inhibitory activity and the ionomycin alone treatment group to 0% inhibitory activity. To derive the results, the test was repeated three times, and the average values of the results were classified according to the range below and shown in Table 4 below (A: >60% inhibition, B: 30 to 60% inhibition, N/A: no test).

[3] = Cell viability measurement (MTS), Calu-3 cells; conditions: human
How it was run: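 Calu-3 cells at about 20% confluency treated with compounds at 1, 3 and 10 μM (0.5% v/v DMSO) for 48 h at 37 °C. MTS added for 1 h; A490 minus A690 background, normalized to DMSO control as 100%; mean of 2–6 repeats, binned into viability ranges.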

SMILES | inhibition at 10 µM [1] [%] | inhibition at 10 µM [2] [%] | inhibition at 0.05 µM (human ANO6 (variant 5)) [%] | inhibition at 1 µM (human ANO6 (variant 5)) [%] | viability at 48 h, 1 µM ([3]; 1 μM) [%] | viability at 48 h, 3 µM ([3]; 3 μM) [%] | viability at 48 h, 10 µM [3] [%]
CN(Cc1ccccc1)c1ccc2nc(-c3cccc(Nc4ccc(-c5cccnn5)cc4)c3)[nH]c2c1 [Example 280, N-benzyl-N-methyl-2-(3-((4-(pyridazin-3-yl)phenyl)amino)phenyl)-1H-benzo[d]imidazol-6-amine] | > 60 | > 60 | 30 to 60 | > 60 |  |  | 
Fc1ccc2nc(-c3cccc(Nc4ncc(-c5cccnn5)cn4)c3)[nH]c2c1 [Example 51, N-(3-(6-fluoro-1H-benzo[d]imidazol-2-yl)phenyl)-5-(pyridazin-3-yl)pyrimidin-2-amine] |  |  | 30 to 60 |  | > 80 | > 80 | > 80
Fc1cc2nc(-c3cccc(Nc4ncc(-c5ccccn5)cn4)c3)[nH]c2cc1F [Example 313, N-(3-(5,6-difluoro-1H-benzo[d]imidazol-2-yl)phenyl)-5-(pyridin-2-yl)pyrimidin-2-amine] |  |  | > 60 | > 60 |  |  | > 80
Clc1ccc2nc(-c3cccc(Nc4cnc(-c5ccccn5)cn4)c3)[nH]c2c1 [Example 324, N-(3-(6-chloro-1H-benzo[d]imidazol-2-yl)phenyl)-5-(pyridin-2-yl)pyrazin-2-amine] |  |  | 30 to 60 | > 60 |  |  | > 80
FC(F)Oc1cc2[nH]c(-c3cccc(Nc4ccc(-c5cccnn5)cc4)c3)nc2cn1 [Example 331, 3-(6-(difluoromethoxy)-1H-imidazo[4,5-c]pyridin-2-yl)-N-(4-(pyridazin-3-yl)phenyl)aniline] |  |  | 30 to 60 | > 60 |  |  | > 80
